Measurements from the NIST ThermoML archive (doi:10.1021/je040006u).

Assay: xn = mol fraction of the nth substance listed
Settings: 101.3 kPa, Liquid, Pycnometric method

CCCNCCC [dipropylamine] + COCCO
mass density [kg/m3]
Settings	291.15 K	293.15 K	298.15 K
x2 = 0	738.47	737.2	732.56
x2 = 0.0501	746.83	745.26	740.37
x2 = 0.1	754.98	753.42	748.52
x2 = 0.1502	763.4	761.9	756.9
x2 = 0.2001	772.06	770.51	765.5
x2 = 0.2508	781.14	779.61	774.59
x2 = 0.2999	790.26	788.66	783.68
x2 = 0.3502	799.92	798.35	793.28
x2 = 0.4	809.92	808.21	803.2
x2 = 0.45	820.34	818.67	813.61
x2 = 0.4999	831.06	829.4	–
x2 = 0.5507	842.47	840.75	–
x2 = 0.5982	853.45	851.69	–
x2 = 0.6502	866.02	864.26	–
x2 = 0.6999	878.41	876.59	–
x2 = 0.7489	891.21	889.34	–
x2 = 0.8015	905.66	903.7	–
x2 = 0.8496	919.22	917.32	–
x2 = 0.8997	934.42	932.35	–
x2 = 0.9497	950.19	948.22	–
